Experimental data: patent US9655884B2, “Antiparasitic use of isoxazoline compounds” (Intervet Inc., priority 2013, dated 2017)

How the values were obtained:
[1] = Adverse events in treated dogs following administration; assay type: in vivo; settings: chewable tablet (Bravecto), close to 25 mg/kg body weight oral
Description: Twenty healthy male and female mixed-breed dogs ≧12 weeks old were housed in individual pens. Ten dogs per group were randomly assigned to receive either a fluralaner chewable tablet (Bravecto™) or no treatment. Each pen contained the bottom half of a dog carrier lined with carpet as bedding. Before treatment, each dog was infested twice (28 and 21 days pretreatment) with 100 adult, unfed C. felis to establish a flea population prior to treatment on each dog. Flea media was added to the carpet 4 weeks before the treatment date and weekly thereafter for the remainder of the study to encourage development of an active, developing population of juvenile flea stages in each pen. On the treatment day, dogs in the treated group received fluralaner at a dose close to 25 mg/kg body weight by oral administration. The chewable tablet(s) were administered by placement in the back of the oral cavity over the tongue to initiate swallowing. Dogs in the negative control group remained untreated.

C. felis = assay: In vivo study in dogs to assess flea control efficacy in a simulated home environment; settings: 25 mg/kg oral; for Mean flea numbers (arithmetic), Treated group / Mean flea numbers (geometric), Treated group: 25 mg/kg
Description: Twenty healthy male and female mixed-breed dogs ≧12 weeks old were housed in individual pens. Ten dogs per group were randomly assigned to receive either a fluralaner chewable tablet (Bravecto™) or no treatment. Each pen contained the bottom half of a dog carrier lined with carpet as bedding. Before treatment, each dog was infested twice (28 and 21 days pretreatment) with 100 adult, unfed C. felis to establish a flea population prior to treatment on each dog. Flea media was added to the carpet 4 weeks before the treatment date and weekly thereafter for the remainder of the study to encourage development of an active, developing population of juvenile flea stages in each pen. On the treatment day, dogs in the treated group received fluralaner at a dose close to 25 mg/kg body weight by oral administration. The chewable tablet(s) were administered by placement in the back of the oral cavity over the tongue to initiate swallowing. Dogs in the negative control group remained untreated. Flea counts were performed on all dogs 1 day before treatment, 1 day after treatment and then every 7 days until completion of the study 84 days later. All live fleas recovered were held and re-infested on the dog after the comb count was completed. Each dog was also infested with 50 newly emerged unfed adult fleas on days 22, 50 and 78 to simulate natural infestation post-treatment. The individual dog was the experimental unit and data from each flea count time point were analyzed separately. Flea count data were transformed [Y=loge(x+1)] and analyzed by a mixed linear model including treatment as the fixed effect and block as the random effect. Kenward-Rogers adjustment was used to determine the denominator degree of freedom. A two-tailed test was used within the mixed linear model for the comparison between treatment groups and statistical significance was declared when P≦0.05. SAS version 9.3 was the primary software used for analysis. Efficacy was calculated using arithmetic and geometric means with Abbott's formula: Efficacy (%)=100×(MC−MT)/MC, where MC was the arithmetic or geometric mean number of total adult live fleas on untreated dogs and MT the arithmetic or geometric mean number of total adult live fleas on treated dogs.

[2] = day 1 post treatment, listed as fluranaler
[3] = day 7 post treatment, listed as fluranaler
[4] = day 14 post treatment, listed as fluranaler
[5] = day 21 post treatment, listed as fluranaler
[6] = day 28 post treatment, listed as fluranaler
[7] = day 35 post treatment, listed as fluranaler
[8] = day 42 post treatment, listed as fluranaler
[9] = day 49 post treatment, listed as fluranaler
[10] = day 56 post treatment, listed as fluranaler
[11] = day 63 post treatment, listed as fluranaler
[12] = day 70 post treatment, listed as fluranaler
[13] = day 77 post treatment, listed as fluranaler
[14] = day 84 post treatment, listed as fluranaler

Compound: Cc1cc(C2=NOC(c3cc(Cl)cc(Cl)c3)(C(F)(F)F)C2)ccc1C(=O)NCC(=O)NCC(F)(F)F (centres unmarked) [fluralaner, 4-[5-(3,5-Dichlorophenyl)-5-trifluoromethyl-4,5-dihydroisoxazol-3-yl]-2-methyl-N-[(2,2,2-trifluoro-ethylcarbamoyl)-methyl]-benzamide]
- Adverse events [1]: No adverse events were observed
- Flea-control efficacy (C. felis; all post-treatment time points (12-week post-treatment period)): ~100%
- Efficacy (from arithmetic mean flea counts) (C. felis; day 1 post treatment): 100/100%
- Efficacy (from geometric mean flea counts) (C. felis; day 1 post treatment): 100/100%
- Mean flea numbers (arithmetic), Treated group (C. felis; day 1 post treatment): 0
- Mean flea numbers (geometric), Treated group (C. felis; day 1 post treatment): 0
- Mean flea numbers (arithmetic), Treated group (C. felis; [2]): 0/0
- Mean flea numbers (geometric), Treated group (C. felis; [2]): 0/0
- Efficacy (from arithmetic mean flea counts) (C. felis; day 7 post treatment): 100/100%
- Efficacy (from geometric mean flea counts) (C. felis; day 7 post treatment): 100/100%
- Mean flea numbers (arithmetic), Treated group (C. felis; day 7 post treatment): 0
- Mean flea numbers (geometric), Treated group (C. felis; day 7 post treatment): 0
- Mean flea numbers (arithmetic), Treated group (C. felis; [3]): 0/0
- Mean flea numbers (geometric), Treated group (C. felis; [3]): 0/0
- Efficacy (from arithmetic mean flea counts) (C. felis; day 14 post treatment): 100/100%
- Efficacy (from geometric mean flea counts) (C. felis; day 14 post treatment): 100/100%
- Mean flea numbers (arithmetic), Treated group (C. felis; day 14 post treatment): 0
- Mean flea numbers (geometric), Treated group (C. felis; day 14 post treatment): 0
- Mean flea numbers (arithmetic), Treated group (C. felis; [4]): 0/0
- Mean flea numbers (geometric), Treated group (C. felis; [4]): 0/0
- Efficacy (from arithmetic mean flea counts) (C. felis; day 21 post treatment): 100/100%
- Efficacy (from geometric mean flea counts) (C. felis; day 21 post treatment): 100/100%
- Mean flea numbers (arithmetic), Treated group (C. felis; day 21 post treatment): 0
- Mean flea numbers (geometric), Treated group (C. felis; day 21 post treatment): 0
- Mean flea numbers (arithmetic), Treated group (C. felis; [5]): 0/0
- Mean flea numbers (geometric), Treated group (C. felis; [5]): 0/0
- Efficacy (from arithmetic mean flea counts) (C. felis; day 28 post treatment): 100/100%
- Efficacy (from geometric mean flea counts) (C. felis; day 28 post treatment): 100/100%
- Mean flea numbers (arithmetic), Treated group (C. felis; day 28 post treatment): 0
- Mean flea numbers (geometric), Treated group (C. felis; day 28 post treatment): 0
- Mean flea numbers (arithmetic), Treated group (C. felis; [6]): 0/0
- Mean flea numbers (geometric), Treated group (C. felis; [6]): 0/0
- Efficacy (from arithmetic mean flea counts) (C. felis; day 35 post treatment): 100/100%
- Efficacy (from geometric mean flea counts) (C. felis; day 35 post treatment): 100/100%
- Mean flea numbers (arithmetic), Treated group (C. felis; day 35 post treatment): 0
- Mean flea numbers (geometric), Treated group (C. felis; day 35 post treatment): 0
- Mean flea numbers (arithmetic), Treated group (C. felis; [7]): 0/0
- Mean flea numbers (geometric), Treated group (C. felis; [7]): 0/0
- Efficacy (from arithmetic mean flea counts) (C. felis; day 42 post treatment): 100/100%
- Efficacy (from geometric mean flea counts) (C. felis; day 42 post treatment): 100/100%
- Mean flea numbers (arithmetic), Treated group (C. felis; day 42 post treatment): 0
- Mean flea numbers (geometric), Treated group (C. felis; day 42 post treatment): 0
- Mean flea numbers (arithmetic), Treated group (C. felis; [8]): 0/0
- Mean flea numbers (geometric), Treated group (C. felis; [8]): 0/0
- Efficacy (from arithmetic mean flea counts) (C. felis; day 49 post treatment): 99.8%
- Efficacy (from geometric mean flea counts) (C. felis; day 49 post treatment): 99.7%
- Mean flea numbers (arithmetic), Treated group (C. felis; day 49 post treatment): 0.1
- Mean flea numbers (geometric), Treated group (C. felis; day 49 post treatment): 0.1
- Mean flea numbers (arithmetic), Treated group (C. felis; [9]): 0.1/0.1
- Mean flea numbers (geometric), Treated group (C. felis; [9]): 0.1/0.1
- Efficacy (from arithmetic mean flea counts) (C. felis; day 56 post treatment): 99.8/99.8%
- Efficacy (from geometric mean flea counts) (C. felis; day 56 post treatment): 99.8/99.8%
- Mean flea numbers (arithmetic), Treated group (C. felis; day 56 post treatment): 0.1
- Mean flea numbers (geometric), Treated group (C. felis; day 56 post treatment): 0.1
- Mean flea numbers (arithmetic), Treated group (C. felis; [10]): 0.1/0.1
- Mean flea numbers (geometric), Treated group (C. felis; [10]): 0.1/0.1
- Efficacy (from arithmetic mean flea counts) (C. felis; day 63 post treatment): 100/100%
- Efficacy (from geometric mean flea counts) (C. felis; day 63 post treatment): 100/100%
- Mean flea numbers (arithmetic), Treated group (C. felis; day 63 post treatment): 0
- Mean flea numbers (geometric), Treated group (C. felis; day 63 post treatment): 0
- Mean flea numbers (arithmetic), Treated group (C. felis; [11]): 0/0
- Mean flea numbers (geometric), Treated group (C. felis; [11]): 0/0
- Efficacy (from arithmetic mean flea counts) (C. felis; day 70 post treatment): 99.7%
- Efficacy (from geometric mean flea counts) (C. felis; day 70 post treatment): 99.6%
- Mean flea numbers (arithmetic), Treated group (C. felis; day 70 post treatment): 0.1
- Mean flea numbers (geometric), Treated group (C. felis; day 70 post treatment): 0.1
- Mean flea numbers (arithmetic), Treated group (C. felis; [12]): 0.1/0.1
- Mean flea numbers (geometric), Treated group (C. felis; [12]): 0.1/0.1
- Efficacy (from arithmetic mean flea counts) (C. felis; day 77 post treatment): 100/100%
- Efficacy (from geometric mean flea counts) (C. felis; day 77 post treatment): 100/100%
- Mean flea numbers (arithmetic), Treated group (C. felis; day 77 post treatment): 0
- Mean flea numbers (geometric), Treated group (C. felis; day 77 post treatment): 0
- Mean flea numbers (arithmetic), Treated group (C. felis; [13]): 0/0
- Mean flea numbers (geometric), Treated group (C. felis; [13]): 0/0
- Efficacy (from arithmetic mean flea counts) (C. felis; day 84 post treatment): 100/100%
- Efficacy (from geometric mean flea counts) (C. felis; day 84 post treatment): 100/100%
- Mean flea numbers (arithmetic), Treated group (C. felis; day 84 post treatment): 0
- Mean flea numbers (geometric), Treated group (C. felis; day 84 post treatment): 0
- Mean flea numbers (arithmetic), Treated group (C. felis; [14]): 0/0
- Mean flea numbers (geometric), Treated group (C. felis; [14]): 0/0
